Legend:
[1] = molecular target: T1, BaF3 cell line transfected with the oncogenic fusion protein NPM-ALK and expressing the mutation L1196M (Homo sapiens, UniProt Q9UM73, L1196M, cells depend on it); experiment: Tritiated thymidine uptake cell proliferation assay, BaF3 NPM-ALK L1196M; assay type: cell-based, murine; conditions: for GI50: averaged IC50 values of cell proliferation inhibition, class letters, read-out: IC50 BaF3 NPM-ALK L1196M cells; for % Inhibition BaF3 NPM-ALK L1196M cells: percentage of inhibition of cell proliferation at 200 nM
T1 construct: fused on or other part: P06748 (Nucleophosmin)
T1 sequence (Q9UM73 whole entry L1196M, the tested form may be a part): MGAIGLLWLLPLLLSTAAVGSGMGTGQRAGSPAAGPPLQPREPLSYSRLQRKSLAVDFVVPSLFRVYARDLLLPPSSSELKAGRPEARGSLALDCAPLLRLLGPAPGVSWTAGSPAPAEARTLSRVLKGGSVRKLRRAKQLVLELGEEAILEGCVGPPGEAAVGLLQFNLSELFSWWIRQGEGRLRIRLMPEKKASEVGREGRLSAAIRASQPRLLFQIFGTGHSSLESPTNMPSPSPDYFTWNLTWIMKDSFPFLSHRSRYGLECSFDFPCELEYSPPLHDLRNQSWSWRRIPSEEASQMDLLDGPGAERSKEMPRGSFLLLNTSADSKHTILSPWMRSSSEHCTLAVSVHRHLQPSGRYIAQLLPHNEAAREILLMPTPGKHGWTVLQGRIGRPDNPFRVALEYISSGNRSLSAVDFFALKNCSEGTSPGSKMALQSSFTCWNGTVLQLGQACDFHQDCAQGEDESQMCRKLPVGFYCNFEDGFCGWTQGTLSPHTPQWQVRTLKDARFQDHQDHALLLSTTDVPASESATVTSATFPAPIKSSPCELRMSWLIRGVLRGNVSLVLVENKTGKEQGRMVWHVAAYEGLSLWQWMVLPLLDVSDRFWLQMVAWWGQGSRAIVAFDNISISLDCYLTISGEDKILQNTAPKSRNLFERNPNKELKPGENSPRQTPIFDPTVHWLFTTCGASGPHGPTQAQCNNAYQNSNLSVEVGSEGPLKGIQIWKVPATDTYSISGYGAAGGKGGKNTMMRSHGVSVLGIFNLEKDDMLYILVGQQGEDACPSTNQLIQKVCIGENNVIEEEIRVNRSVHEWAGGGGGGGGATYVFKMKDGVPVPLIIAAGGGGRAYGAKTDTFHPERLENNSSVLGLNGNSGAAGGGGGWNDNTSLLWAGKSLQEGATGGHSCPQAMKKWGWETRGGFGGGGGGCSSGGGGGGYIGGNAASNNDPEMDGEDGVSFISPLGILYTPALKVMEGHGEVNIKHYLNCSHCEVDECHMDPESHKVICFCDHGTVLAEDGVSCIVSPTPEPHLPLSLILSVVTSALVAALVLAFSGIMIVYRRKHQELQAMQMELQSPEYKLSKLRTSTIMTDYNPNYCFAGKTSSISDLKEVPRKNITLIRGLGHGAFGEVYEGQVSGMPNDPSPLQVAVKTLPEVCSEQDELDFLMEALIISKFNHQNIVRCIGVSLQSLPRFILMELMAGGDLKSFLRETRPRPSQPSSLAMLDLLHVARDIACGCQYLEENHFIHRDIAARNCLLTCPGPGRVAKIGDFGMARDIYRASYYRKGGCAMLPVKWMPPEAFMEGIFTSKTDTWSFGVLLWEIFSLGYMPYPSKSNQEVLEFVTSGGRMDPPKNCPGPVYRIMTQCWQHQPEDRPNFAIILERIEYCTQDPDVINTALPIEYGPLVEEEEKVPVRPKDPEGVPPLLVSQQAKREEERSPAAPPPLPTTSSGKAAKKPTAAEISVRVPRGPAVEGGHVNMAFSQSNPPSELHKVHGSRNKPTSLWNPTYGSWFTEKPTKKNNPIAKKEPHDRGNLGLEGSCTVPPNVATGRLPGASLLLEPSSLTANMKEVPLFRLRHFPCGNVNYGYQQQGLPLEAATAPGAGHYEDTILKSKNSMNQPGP
Description: (§1) Method: Tritiated Thymidine Uptake Cell Proliferation Assay
(§2) The following procedure was used with parent untransformed BaF3 cells, BaF3 cells transformed with the oncogenic fusion protein NPM/ALK, NPM/ALK positive SUDHL-1 cells, NPM/ALK positive SUPM2, ALK-negative HL60 cells, NPM/ALK positive KARPAS-299 cells. The parent untransformed BaF3 cells or Alk-negative HL60 cells are used as controls. Cells were seeded in U-bottomed 96-well plates at 10000 cells/well in a volume of 100 μl in supplemented medium. In the case of the parent untransformed BaF3 cells, the medium was supplemented with IL-3. Serial dilutions of inhibitors were added to the appropriate wells and volumes adjusted to 200 μl. Controls were treated with the equivalent volume of vehicle, DMSO, alone. Plates were incubated at 37° C. for 72 h. 3[H]-thymidine (1 μCi/well) was added for the last 16 h of incubation. Cells were harvested on to paper filters and 3[H]-thymidine incorporation was measured using a scintillation counter (1430 MicroBeta, Wallac, Turku, Finland). The 50% inhibitory concentration (IC50) was defined as the concentration of inhibitor, expressed in nanomolar units, that gave a 50% decrease in 3[H]-thymidine uptake compared with controls.
In Table 2 are listed results for selected examples of compounds of the invention, reported as percentage of inhibition of cell proliferation at 200 nM, obtained from cellular assays in BaF3 cell line transfected with the oncogenic fusion protein NPM-ALK and expressing the mutation L1196M.
In Table 3 are listed averaged IC50 values of cell proliferation inhibition for selected examples of compounds of the present invention, obtained from cellular assays in BaF3 cell line transfected with the oncogenic fusion protein NPM-ALK and expressing the mutation L1196M. The letter “A” designates an IC50 value between 1 nM and 50 nM, the letter “B” designates an IC50 value between 50 nM and 100 nM, the letter “C” designates an IC50 value between 100 and 500 nM.

[2] = tested on: Karpas 299 lymphoma cell line positive for the oncogenic fusion protein NPM-ALK; experiment: Tritiated thymidine uptake cell proliferation assay, Karpas 299; assay type: cell-based; conditions: Homo sapiens, KARPAS-299; percentage of inhibition of cell proliferation at 200 nM; read-out: % Inhibition Karpas 299 cells
Description: as §1, §2
In Table 1 are listed results for selected examples of compounds of the invention, reported as percentage of inhibition of cell proliferation at 200 nM, obtained from cellular assays in Karpas 299 lymphoma cell line positive for the oncogenic fusion protein NPM-ALK.

Row | Structure (SMILES) | GI50 [1] [nM] | % Inhibition BaF3 NPM-ALK L1196M cells [1] [%] | inhibition at 0.2 µM [2] [%]
1 | CN1CCN(c2ccc(C(=O)Nc3n[nH]c4cc(-c5cccc(O)c5)c(Cc5cc(F)cc(F)c5)cc34)c(NC3CCOCC3)c2)CC1 [Example 4, N-[5-[(3,5-difluorophenyl)methyl]-6-(3-hydroxyphenyl)-1H-indazol-3-yl]-4-(4-methylpiperazin-1-yl)-2-(tetrahydropyran-4-ylamino)benzamide] | 1 to 50 | 99 | 99
2 | Cc1cc(O)ccc1-c1cc2[nH]nc(NC(=O)c3ccc(N4CCN(C)CC4)cc3NC3CCOCC3)c2cc1Cc1cc(F)cc(F)c1 [Example 5, N-[5-[(3,5-difluorophenyl)methyl]-6-(4-hydroxy-2-methyl-phenyl)-1H-indazol-3-yl]-4-(4-methylpiperazin-1-yl)-2-(tetrahydropyran-4-ylamino)benzamide] | 1 to 50 | 100 | 100
3 | CN1CCN(c2ccc(C(=O)Nc3n[nH]c4cc(-c5ccc(O)cc5F)c(Cc5cc(F)cc(F)c5)cc34)c(NC3CCOCC3)c2)CC1 [Example 6, N-[5-[(3,5-difluorophenyl)methyl]-6-(2-fluoro-4-hydroxy-phenyl)-1H-indazol-3-yl]-4-(4-methylpiperazin-1-yl)-2-(tetrahydropyran-4-ylamino)benzamide] | 1 to 50 | 100 | 100
4 | Cc1ccc(O)cc1-c1cc2[nH]nc(NC(=O)c3ccc(N4CCN(C)CC4)cc3NC3CCOCC3)c2cc1Cc1cc(F)cc(F)c1 [Example 7, N-[5-[(3,5-difluorophenyl)methyl]-6-(5-hydroxy-2-methyl-phenyl)-1H-indazol-3-yl]-4-(4-methylpiperazin-1-yl)-2-(tetrahydropyran-4-ylamino)benzamide] | 1 to 50 | 100 | 93
5 | CN1CCN(c2ccc(C(=O)Nc3n[nH]c4cc(-c5cc(O)ccc5F)c(Cc5cc(F)cc(F)c5)cc34)c(NC3CCOCC3)c2)CC1 [Example 8, N-[5-[(3,5-difluorophenyl)methyl]-6-(2-fluoro-5-hydroxy-phenyl)-1H-indazol-3-yl]-4-(4-methylpiperazin-1-yl)-2-(tetrahydropyran-4-ylamino)benzamide] | 1 to 50 | 99 | 99
6 | CN1CCN(c2ccc(C(=O)Nc3n[nH]c4cc(-c5ccc(O)cc5C(F)(F)F)c(Cc5cc(F)cc(F)c5)cc34)c(NC3CCOCC3)c2)CC1 [Example 9, N-[5-[(3,5-difluorophenyl)methyl]-6-[4-hydroxy-2-(trifluoromethyl)phenyl]-1H-indazol-3-yl]-4-(4-methylpiperazin-1-yl)-2-(tetrahydropyran-4-ylamino)benzamide] | 1 to 50 | 99 | 100
7 | CN1CCN(c2ccc(C(=O)Nc3n[nH]c4cc(-c5cnc(N)nc5)c(Cc5cc(F)cc(F)c5)cc34)c(NC3CCOCC3)c2)CC1 [Example 10, N-[6-(2-aminopyrimidin-5-yl)-5-[(3,5-difluorophenyl)methyl]-1H-indazol-3-yl]-4-(4-methylpiperazin-1-yl)-2-(tetrahydropyran-4-ylamino)benzamide] | – | 61 | 93
8 | CN1CCN(c2ccc(C(=O)Nc3n[nH]c4cc(-c5ccc(N)nc5)c(Cc5cc(F)cc(F)c5)cc34)c(NC3CCOCC3)c2)CC1 [Example 11, N-[6-(6-amino-3-pyridyl)-5-[(3,5-difluorophenyl)methyl]-1H-indazol-3-yl]-4-(4-methylpiperazin-1-yl)-2-(tetrahydropyran-4-ylamino)benzamide] | 50 to 100 | 88 | 95
9 | CN1CCN(c2ccc(C(=O)Nc3n[nH]c4cc(-c5cncc(N)c5)c(Cc5cc(F)cc(F)c5)cc34)c(NC3CCOCC3)c2)CC1 [Example 12, N-[6-(5-amino-3-pyridyl)-5-[(3,5-difluorophenyl)methyl]-1H-indazol-3-yl]-4-(4-methylpiperazin-1-yl)-2-(tetrahydropyran-4-ylamino)benzamide] | 50 to 100 | 99 | 100
10 | CN1CCN(c2ccc(C(=O)Nc3n[nH]c4cc(-c5cccc(CO)c5)c(Cc5cc(F)cc(F)c5)cc34)c(NC3CCOCC3)c2)CC1 [Example 13, N-[5-[(3,5-difluorophenyl)methyl]-6-[3-(hydroxymethyl)phenyl]-1H-indazol-3-yl]-4-(4-methylpiperazin-1-yl)-2-(tetrahydropyran-4-ylamino)benzamide] | 100 to 500 | 97 | –
11 | CN1CCN(c2ccc(C(=O)Nc3n[nH]c4cc(-c5cc[nH]c(=O)c5)c(Cc5cc(F)cc(F)c5)cc34)c(NC3CCOCC3)c2)CC1 [Example 16, N-[5-[(3,5-difluorophenyl)methyl]-6-(2-oxo-1H-pyridin-4-yl)-1H-indazol-3-yl]-4-(4-methylpiperazin-1-yl)-2-(tetrahydropyran-4-ylamino)benzamide] | – | – | 88

Second part, led by results:

Row | GI50 [1] [nM] | % Inhibition BaF3 NPM-ALK L1196M cells [1] [%] | Structure (SMILES) | inhibition at 0.2 µM [2] [%]
12 | – | 66 | Cc1cc(N)ncc1-c1cc2[nH]nc(NC(=O)c3ccc(N4CCN(C)CC4)cc3NC3CCOCC3)c2cc1Cc1cc(F)cc(F)c1 [Example 14, N-[6-(6-amino-4-methyl-3-pyridyl)-5-[(3,5-difluorophenyl)methyl]-1H-indazol-3-yl]-4-(4-methylpiperazin-1-yl)-2-(tetrahydropyran-4-ylamino)benzamide] | 62
13 | 50 to 100 | 100 | CN1CCN(c2ccc(C(=O)Nc3n[nH]c4cc(-c5cnn(C(C)(C)CO)c5)c(Cc5cc(F)cc(F)c5)cc34)c(NC3CCOCC3)c2)CC1 [Example 15, N-[5-[(3,5-difluorophenyl)methyl]-6-[1-(2-hydroxy-1,1-dimethyl-ethyl)pyrazol-4-yl]-1H-indazol-3-yl]-4-(4-methylpiperazin-1-yl)-2-(tetrahydropyran-4-ylamino)benzamide] | 100
14 | 100 to 500 | 97 | CN1CCN(c2ccc(C(=O)Nc3n[nH]c4cc(-c5cn[nH]c5)c(Cc5cc(F)cc(F)c5)cc34)c(NC3CCOCC3)c2)CC1 [Example 18, N-[5-[(3,5-difluorophenyl)methyl]-6-(1H-pyrazol-4-yl)-1H-indazol-3-yl]-4-(4-methylpiperazin-1-yl)-2-(tetrahydropyran-4-ylamino)benzamide] | 100
15 | – | 57 | CNC(=O)c1ccc(-c2cc3[nH]nc(NC(=O)c4ccc(N5CCN(C)CC5)cc4NC4CCOCC4)c3cc2Cc2cc(F)cc(F)c2)cc1 [Example 20, N-[5-[(3,5-difluorophenyl)methyl]-6-[4-(methylcarbamoyl)phenyl]-1H-indazol-3-yl]-4-(4-methylpiperazin-1-yl)-2-(tetrahydropyran-4-ylamino)benzamide] | –
16 | – | 52 | COc1cccc(-c2cc3[nH]nc(NC(=O)c4ccc(N5CCN(C)CC5)cc4NC4CCOCC4)c3cc2Cc2cc(F)cc(F)c2)c1 [Example 24, N-[5-[(3,5-difluorophenyl)methyl]-6-(3-methoxyphenyl)-1H-indazol-3-yl]-4-(4-methylpiperazin-1-yl)-2-(tetrahydropyran-4-ylamino)benzamide] | –

Reference: patent US10336707B2, “Heterocyclic derivatives modulating activity of certain protein kinases” (EUDENDRON S.R.L., priority 2014, dated 2019)
